Patent publication US8455500B2, “3-hydroxy-5-arylisoxazole derivative” (Mochida Pharmaceutical Co., Ltd., priority 2009, dated 2013)
pEC50: −log10 of the molar value.

biological target: T1, GPR40 of human origin (Homo sapiens, UniProt O14842); test: Agonist action on GPR40 of human origin (Ca2+ fluorescence in a CHO cell strain stably expressing GPR40); type: cell-based; settings: Ca2+ concentration fluctuation, fluorescence intensity
T1 construct: expressed in transfected cells
Description: A CHO cell strain stably expressing GPR40 of human origin was used to determine the agonist action of a subject compound. This cell strain was seeded in a clear bottom 96 well plate at 4×10^4 cells/100 μL/well. The cell strain was cultured in a CO2 incubator overnight using a Ham's F-12 medium containing a 10% fetal bovine serum, 100 U/mL penicillin, 0.1 mg/mL streptomycin, and 400 μg/mL Geneticin. Calcium 4 Assay Kit (Molecular Devices) was used as a fluorescent calcium indicator. One mL of 77 mg/mL probenecid (Invitrogen) was added to 100 mL of a calcium indicator solution to prepare a solution (loading solution) mixed with a 20 mM HEPES-containing Hanks' balanced salt solution (HBSS) in equal proportions. 200 μL of the loading solution was added to the cells from which the culture solution was removed, and the cells were cultured in a CO2 incubator for 1 hour. The subject compound was diluted with a 20 mM HEPES-containing HBSS and was added to the cells by 50 μL, and the fluctuation of the Ca^2+ concentration was measured by an intracellular ion analyzer. The EC50 value of the subject compound was calculated using the dose-response curve of fluorescence intensity variation.

T1 sequence (O14842 whole entry): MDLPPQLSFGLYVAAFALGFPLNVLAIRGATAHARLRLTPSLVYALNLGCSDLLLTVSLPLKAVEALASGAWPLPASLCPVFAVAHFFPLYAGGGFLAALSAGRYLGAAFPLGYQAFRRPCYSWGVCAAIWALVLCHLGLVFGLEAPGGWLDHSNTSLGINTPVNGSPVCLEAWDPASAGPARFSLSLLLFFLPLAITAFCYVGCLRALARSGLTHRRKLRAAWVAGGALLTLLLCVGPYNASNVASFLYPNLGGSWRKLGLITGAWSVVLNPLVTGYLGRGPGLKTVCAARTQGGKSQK

SMILES	pEC50
Oc1cc(-c2ccc(OC3Cc4ccccc4C3)cc2)on1 [Example 2, 5-(4-(2,3-dihydro-1H-inden-2-yloxy)phenyl)isoxazol-3-ol]	> 6.52
Oc1cc(-c2ccc(OC3CCc4c(Cl)cccc43)cc2)on1 (stereo not drawn) [Example 11, 5-(4-(4-chloro-2,3-dihydro-1H-inden-1-yloxy)phenyl)isoxazol-3-ol]	> 6.52
N#Cc1cccc2c1CCC2Oc1ccc(-c2cc(O)no2)cc1 (stereo not drawn) [Example 12, 5-(4-(4-cyano-2,3-dihydro-1H-inden-1-yloxy)phenyl)isoxazol-3-ol]	5.52 to 6.52
Oc1cc(-c2ccc(OC3CCc4cc(Cl)ccc43)cc2)on1 (stereo not drawn) [Example 13, 5-(4-(5-chloro-2,3-dihydro-1H-inden-1-yloxy)phenyl)isoxazol-3-ol]	5.52 to 6.52
Oc1cc(-c2ccc(OC3CCc4cc(Br)ccc43)cc2)on1 (stereo not drawn) [Example 14, 5-(4-(5-bromo-2,3-dihydro-1H-inden-1-yloxy)phenyl)isoxazol-3-ol]	5.52 to 6.52
Oc1cc(-c2ccc(OC3CCc4c3ccc(Cl)c4Cl)cc2)on1 (stereo not drawn) [Example 19, 5-(4-(4,5-dichloro-2,3-dihydro-1H-inden-1-yloxy)phenyl)isoxazol-3-ol]	5.52 to 6.52
COc1cccc(-c2cccc3c2CCC3Oc2ccc(-c3cc(O)no3)cc2)c1 (stereo not drawn) [Example 21, 5-(4-(2,3-dihydro-4-(3-methoxyphenyl)-1H-inden-1-yloxy)phenyl)isoxazol-3-ol]	> 6.52
COc1ncccc1-c1cccc2c1CCC2Oc1ccc(-c2cc(O)no2)cc1 (stereo not drawn) [Example 23, 5-(4-(2,3-dihydro-4-(2-methoxypyridin-3-yl)-1H-inden-1-yloxy)phenyl)isoxazol-3-ol]	> 6.52
Cc1cc(OCCC(C)(C)O)nc(C)c1-c1cccc2c1CCC2Oc1ccc(-c2cc(O)no2)cc1 (stereo not drawn) [Example 24, 5-(4-(4-(6-(3-hydroxy-3-methylbutoxy)-2,4-dimethylpyridin-3-yl)-2,3-dihydro-1H-inden-1-yloxy)phenyl)isoxazol-3-ol]	> 6.52
Oc1cc(-c2ccc(OC3CCc4c(Oc5ccccc5)cccc43)cc2)on1 (stereo not drawn) [Example 26, 5-(4-(2,3-dihydro-4-phenoxy-1H-inden-1-yloxy)phenyl)isoxazol-3-ol]	> 6.52
Oc1cc(-c2ccc(OC3CCc4c(OCc5ccccc5C(F)(F)F)cccc43)cc2)on1 (stereo not drawn) [Example 29, 5-(4-(2,3-dihydro-4-(2-(trifluoromethyl)benzyloxy)-1H-inden-1-yloxy)phenyl)isoxazol-3-ol]	5.52 to 6.52
Oc1cc(-c2ccc(OC3CCc4c(Cc5ccccc5)cccc43)cc2)on1 (stereo not drawn) [Example 30, 5-(4-(4-benzyl-2,3-dihydro-1H-inden-1-yloxy)phenyl)isoxazol-3-ol]	> 6.52
Oc1cc(-c2ccc(NC3CCc4cc(Cl)ccc43)cc2)on1 (stereo not drawn) [Example 31, 5-(4-(5-chloro-2,3-dihydro-1H-inden-1-ylamino)phenyl)isoxazol-3-ol]	5.52 to 6.52
Oc1cc(-c2ccc(OC3CCc4c(-c5ccc6c(c5)OCCO6)cccc43)cc2)on1 (stereo not drawn) [Example 34, 5-(4-(2,3-dihydro-4-(1,4-benzodioxan-6-yl)-1H-inden-1-yloxy)phenyl)isoxazol-3-ol]	5.52 to 6.52
Oc1cc(-c2ccc(OC3CCc4c(-c5ccc6cc[nH]c6c5)cccc43)cc2)on1 (stereo not drawn) [Example 35, 5-(4-(2,3-dihydro-4-(1H-indol-6-yl)-1H-inden-1-yloxy)phenyl)isoxazol-3-ol]	5.52 to 6.52
Cc1cc(OCC[C@@H](C)O)cc(C)c1-c1cccc2c1CCC2Oc1ccc(-c2cc(O)no2)cc1 (stereo partly drawn) [Example 36, 5-[4-[[4-[4-[(3R)-3-hydroxybutoxy]-2,6-dimethylphenyl]-2,3-dihydro-1H-inden-1-yl]oxy]phenyl]-1,2-oxazol-3-ol]	> 6.52
Cc1cc(OCCC(C)(C)O)cc(C)c1-c1cccc2c1CCC2Oc1ccc(-c2cc(O)no2)cc1 (stereo not drawn) [Example 37, 5-[4-[[4-[4-(3-hydroxy-3-methylbutoxy)-2,6-dimethylphenyl]-2,3-dihydro-1H-inden-1-yl]oxy]phenyl]-1,2-oxazol-3-ol]	> 6.52
Cc1cc(OCCC(C)(C)O)ncc1-c1cccc(COc2ccc(-c3cc(O)no3)cc2)c1C [Example 38, 5-(4-((3-(6-(3-hydroxy-3-methylbutoxy)-4-methylpyridin-3-yl)-2-methylphenyl)methoxy)phenyl)isoxazol-3-ol]	> 6.52
Cc1nc(OCCC(C)(C)O)ccc1-c1cccc(COc2ccc(-c3cc(O)no3)cc2)c1C [Example 39, 5-(4-((3-(6-(3-hydroxy-3-methylbutoxy)-2-methylpyridin-3-yl)-2-methylphenyl)methoxy)phenyl)isoxazol-3-ol]	> 6.52
Cc1cc(OCCC(C)(C)O)nc(C)c1-c1cccc(COc2ccc(-c3cc(O)no3)cc2)c1C [Example 40, 5-(4-((3-(2,4-dimethyl-6-(3-hydroxy-3-methylbutoxy)pyridin-3-yl)-2-methylphenyl)methoxy)phenyl)isoxazol-3-ol]	> 6.52
Cc1cc(OCCC(C)(C)O)nc(C)c1-c1cccc(COc2ccc(-c3cc(O)no3)cc2)c1 [Example 41, 5-(4-((3-(2,4-dimethyl-6-(3-hydroxy-3-methylbutoxy)pyridin-3-yl)phenyl)methoxy)phenyl)isoxazol-3-ol]	> 6.52
Cc1cc(OCCCS(C)(=O)=O)cc(C)c1-c1cccc(COc2ccc(-c3cc(O)no3)cc2)c1 [Example 42, 5-[4-[[3-[2,6-dimethyl-4-(3-methylsulfonylpropoxy)phenyl]phenyl]methoxy]phenyl]-1,2-oxazol-3-ol]	> 6.52
Cc1cc(OCCCN2CCCC2=O)cc(C)c1-c1cccc(COc2ccc(-c3cc(O)no3)cc2)c1 [Example 43, 1-[3-[4-[3-[[4-(3-hydroxy-1,2-oxazol-5-yl)phenoxy]methyl]phenyl]-3,5-dimethylphenoxy]propyl]pyrrolidin-2-one]	> 6.52
Cc1cc(OC[C@H](O)CO)cc(C)c1-c1cccc(COc2ccc(-c3cc(O)no3)cc2)c1C [Example 44, (2R)-3-[4-[3-[[4-(3-hydroxy-1,2-oxazol-5-yl)phenoxy]methyl]-2-methylphenyl]-3,5-dimethylphenoxy]propane-1,2-diol]	> 6.52
Cc1cc(OCCC(C)(C)O)cc(C)c1-c1cccc(COc2ccc(-c3cc(O)no3)cc2)c1C [Example 45, 5-[4-[[3-[4-(3-hydroxy-3-methylbutoxy)-2,6-dimethylphenyl]-2-methylphenyl]methoxy]phenyl]-1,2-oxazol-3-ol]	> 6.52
Cc1c(COc2ccc(-c3cc(O)no3)cc2)cccc1-c1cnc(OCCC(C)(C)O)c(C)c1C [Example 46, 5-[4-[[3-[6-(3-hydroxy-3-methylbutoxy)-4,5-dimethylpyridin-3-yl]-2-methylphenyl]methoxy]phenyl]-1,2-oxazol-3-ol]	> 6.52
Cc1cc(-c2cccc(COc3ccc(-c4cc(O)no4)cc3)c2C)c(C)nc1OCCC(C)(C)O [Example 47, 5-[4-[[3-[6-(3-hydroxy-3-methylbutoxy)-2,5-dimethylpyridin-3-yl]-2-methylphenyl]methoxy]phenyl]-1,2-oxazol-3-ol]	> 6.52
